The values that follow come from patent US10005767B2, “Compositions and methods for inhibition of the JAK pathway” (Rigel Pharmaceuticals, Inc., priority 2009, dated 2018).

This assay concerns human primary T-cells, IL-2 stimulated proliferation (JAK-1 and JAK-3 dependent; reported as JAK3 activity). Kind of assay: Human primary T-cell proliferation stimulated by IL-2 (Example 3). The format is cell-based. Particulars: tested under conditions described in Example 3 (IL-2 stimulated human primary T-cell proliferation), read-out: ability to inhibit JAK3 activity, IC50 range (Table V). The method in brief: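 Peripheral-blood human T-cells pre-activated via TCR/CD28, IL-2-starved overnight, then cultured 72 h at 37 °C with compound in Yssel's medium containing IL-2 (80 U/mL in cell suspension). Proliferation read as viable-cell ATP by CellTiter-Glo luminescence; reduction versus control taken as JAK pathway inhibition.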

Structures can show the parent of a compound that is named as a salt. Where two headings read alike, the source gives them in different places.

For the molecule `COc1cc(Nc2ncc(C)c(Nc3ccc4oc(=O)n(COP(=O)(O)O)c4c3)n2)cc(C)c1F` [Compound I-538, Sodium (5-(2-(4-fluoro-3-methoxy-5-methylphenylamino)-5-methylpyrimidin-4-ylamino)-2-oxobenzo[d]oxazol-3(2H)-yl)methyl phosphate], the IC50 (in general, the concentration that gives 50% inhibition) lay within 0.5 to 5 µM.
Regarding `CNC(=O)COc1cccc(Nc2ncc(C)c(Nc3ccc4oc(=O)[nH]c4c3)n2)c1` [Compound I-306, 5-methyl-N2-(3-methylaminocarbonylmethoxy)phenyl-N4-(2-oxo-2,3-dihydro-1,3-benzoxazol-5-yl)-2,4-pyrimidinediamine], the IC50 was below 0.5 µM.
As to `Cc1cnc(Nc2ccc3c(c2)CCC(=O)N3)nc1Nc1ccc2oc(=O)[nH]c2c1` [IV-33, 5-(5-methyl-2-(2-oxo-1,2,3,4-tetrahydroquinolin-6-ylamino)pyrimidin-4-ylamino)benzo[d]oxazol-2(3H)-one], the IC50 (Homo sapiens, T-cell) is below 0.5 µM.
`Cc1cnc(Nc2ccc(C(C)(C)C)cc2)nc1Nc1ccc2oc(=O)[nH]c2c1` [Compound I-420, 5-(2-(4-tert-butylphenylamino)-5-methylpyrimidin-4-ylamino)benzo[d]oxazol-2(3H)-one]: the half-inhibitory concentration (IC50) (Homo sapiens, T-cell) is below 0.5 µM.
On to `Cc1cnc(Nc2ccc(C(F)(F)F)cc2)nc1Nc1ccc2oc(=O)[nH]c2c1` [Compound I-160, 5-[5-Methyl-2-(4-trifluoromethyl-phenylamino)-pyrimidin-4-ylamino]-3H-benzooxazol-2-one], for which the IC50 (Homo sapiens, T-cell) is below 0.5 µM.
On to `Cc1ccc(Nc2ncc(F)c(Nc3ccc4c(c3)oc(=O)n4C)n2)cc1NS(C)(=O)=O` [Compound I-86, N2-((3-methylsulfonylamino-4-methyl)phenyl)-N4-(3-methyl-2-oxo-2,3-dihydrobenzo[d]oxazol-6-yl)-5-fluoropyrimidine-2,4-diamine], for which the IC50 was above 10 µM.
Turning to `Cc1cnc(Nc2ccc3c(c2)CCNC3=O)nc1Nc1ccc2oc(=O)[nH]c2c1` [IV-15, 6-[5-Methyl-4-(2-oxo-2,3-dihydro-benzooxazol-5-ylamino)-pyrimidin-2-ylamino]-3,4-dihydro-2H-isoquinolin-1-one], for the setting “Homo sapiens, T-cell”, the IC50 is below 0.5 µM.
For `Cc1cnc(Nc2cnc(N3CCN(C)CC3)c(Cl)c2)nc1Nc1ccc2oc(=O)[nH]c2c1` [II-116, N2-[3-chloro-2-(4-methylpiperazino)pyridin-5-yl]-5-methyl-N4-(2-oxo-2,3-dihydro-1,3-benzoxazol-5-yl)-2,4-pyrimidinediamine], for the setting “Homo sapiens, T-cell”, the IC50 is below 0.5 µM.
For the molecule `Cc1cnc(Nc2ccc(N3CCN(C)CC3)nc2)nc1Nc1ccc2[nH]c(=O)[nH]c2c1` [II-15, N4-(benzimidazolin-2-on-5-yl)-N2-[2-(4-methylpiperazin-1-yl)pyridin-5-yl]-5-methylpyrimidine-2,4-diamine], the IC50 is below 0.5 µM.
On to `Cc1cnc(Nc2ccc(Cl)c(OC(F)(F)F)c2)nc1Nc1ccc2oc(=O)[nH]c2c1` [Compound I-180, 5-[2-(4-Chloro-3-trifluoromethoxy-phenylamino)-5-methyl-pyrimidin-4-ylamino]-3H-benzooxazol-2-one], for which the IC50 (Homo sapiens, T-cell) is below 0.5 µM.
Same read-out and setting: with `COc1cc(Nc2ncc(C)c(Nc3cc(F)c4oc(=O)[nH]c4c3)n2)cc(C)c1OC` [Compound I-454, 5-(2-(3,4-dimethoxy-5-methylphenylamino)-5-methylpyrimidin-4-ylamino)-7-fluorobenzo[d]oxazol-2(3H)-one] the figure was below 0.5 µM.
Take `Cc1cnc(Nc2cc(Cl)cc(OC(F)F)c2)nc1Nc1ccc2oc(=O)[nH]c2c1` [Compound I-495, N2-(3-chloro-5-difluoromethoxy)phenyl-5-methyl-N4-(2-oxo-2,3-dihydro-1,3-benzoxazol-5-yl)-2,4-pyrimidinediamine]: the IC50 was below 0.5 µM.
Take `Cc1cnc(Nc2cccc(S(=O)(=O)C(F)(F)F)c2)nc1Nc1ccc2oc(=O)[nH]c2c1` [Compound I-118, N4-(benzo[d]oxazol-2(3H)-on-5-yl)-N2-(3-trifluoromethylsulfonyl)phenyl-5-methylpyrimidine-2,4-diamine]: the IC50 was below 0.5 µM.
For the molecule `Cc1ccc(Nc2ncc(C)c(Nc3ccc4oc(=O)[nH]c4c3)n2)c(F)c1` [Compound I-514, 5-(2-(2-fluoro-4-methylphenylamino)-5-methylpyrimidin-4-ylamino)benzo[d]oxazol-2(3H)-one], where the note is “Homo sapiens, T-cell”, the half-inhibitory concentration (IC50) was below 0.5 µM.
Turning to `CS(=O)(=O)Nc1cccc(Nc2ncc(F)c(Nc3ccc4oc(=O)[nH]c4c3)n2)c1` [Compound I-56], the IC50 was below 0.5 µM.
In the case of `CCN1CCN(c2cc(Nc3ncc(C)c(Nc4ccc5oc(=O)[nH]c5c4)n3)ccc2Cl)CC1` [Compound I-283, N2-[4-chloro-3-(4-ethylpiperazino)]phenyl-5-methyl-N4-(2-oxo-2,3-dihydro-1,3-benzoxazol-5-yl)-2,4-pyrimidinediamine], the IC50 was below 0.5 µM.
With `Cc1cc(Nc2ncc(C)c(Nc3ccc4oc(=O)[nH]c4c3)n2)ccc1C(=O)NC1CCC1` [Compound I-190, N-Cyclobutyl-2-methyl-4-[5-methyl-4-(2-oxo-2,3-dihydro-benzooxazol-5-ylamino)-pyrimidin-2-ylamino]-benzamide], under “Homo sapiens, T-cell”, the IC50 was below 0.5 µM.
On to `Cc1cnc(Nc2ccc3[nH]ncc3c2)nc1Nc1ccc2oc(=O)[nH]c2c1` [IV-6, N4-(benzo[d]oxazol-2(3H)-on-5-yl)-N2-(1H-indazol-5-yl)-5-methylpyrimidine-2,4-diamine], for which, under “Homo sapiens, T-cell”, the IC50 was below 0.5 µM.
As for `Cn1c(=O)oc2cc(Nc3nc(Nc4cccc(S(C)(=O)=O)c4)ncc3F)ccc21` [Compound I-59, N2-((3-methylsulfonyl)phenyl)-N4-(3-methyl-2-oxo-2,3-dihydrobenzo[d]oxazol-6-yl)-5-fluoropyrimidine-2,4-diamine], the IC50 is below 0.5 µM.
As for `Cc1cnc(Nc2cnc(C3CC4CCC(C3)N4C(=O)OC(C)(C)C)c(C)c2)nc1Nc1ccc2oc(=O)[nH]c2c1` (centres unmarked) [II-65, tert-butyl 3-(3-methyl-5-(5-methyl-4-(2-oxo-2,3-dihydrobenzo[d]oxazol-5-ylamino)pyrimidin-2-ylamino)pyridin-2-yl)-8-azabicyclo[3.2.1]octane-8-carboxylate], where the note is “Homo sapiens, T-cell”, the IC50 is below 0.5 µM.
Take `Cc1cnc(Nc2cccc(C(C)N3CCOCC3)c2)nc1Nc1ccc2oc(=O)[nH]c2c1` (centres unmarked) [Compound I-217, 5-(5-methyl-2-(3-(1-morpholinoethyl)phenylamino)pyrimidin-4-ylamino)benzo[d]oxazol-2(3H)-one]: the IC50 (Homo sapiens, T-cell) is below 0.5 µM.
As for `Cc1cnc(Nc2ccc(N3CCNC(C)C3)nc2)nc1Nc1ccc2oc(=O)[nH]c2c1` (centres unmarked) [II-12, N4-(benzo[d]oxazol-2(3H)-on-5-yl)-N2-(6-(3-methylpiperazin-1-yl)pyridin-3-yl)-5-methylpyrimidine-2,4-diamine], the IC50 (Homo sapiens, T-cell) is below 0.5 µM.
`CN1CCN(c2ccc(Nc3ncc(F)c(Nc4ccc5oc(=O)n(C)c5c4)n3)cn2)CC1` [II-24, N2-(6-(4-methylpiperazin-1-yl)pyridin-3-yl)-N4-(3-methyl-2-oxo-2,3-dihydrobenzo[d]oxazol-5-yl)-5-fluoropyrimidine-2,4-diamine]: the IC50 (Homo sapiens, T-cell) lay in the range of 0.5 to 5 µM.
As for `Cc1cnc(Nc2ccc(C(=O)NC3CCC3)cc2)nc1Nc1ccc2oc(=O)[nH]c2c1` [Compound I-138, N-Cyclobutyl-4-[5-methyl-4-(2-oxo-2,3-dihydro-benzooxazol-5-ylamino)-pyrimidin-2-ylamino]-benzamide formic acid salt], the IC50 (Homo sapiens, T-cell) was below 0.5 µM.
For the molecule `CCN(CC)C1CCN(c2ccc(Nc3ncc(C)c(Nc4ccc5oc(=O)[nH]c5c4)n3)cn2)C1` (centres unmarked) [II-82, 5-(2-(6-(3-(diethylamino)pyrrolidin-1-yl)pyridin-3-ylamino)-5-methylpyrimidin-4-ylamino)benzo[d]oxazol-2(3H)-one], the IC50 (Homo sapiens, T-cell) is below 0.5 µM.
Consider `COc1cc(Nc2ncc(C)c(Nc3cc(C)c4oc(=O)[nH]c4c3)n2)cc(C)c1OC` [Compound I-453, 5-(2-(3,4-dimethoxy-5-methylphenylamino)-5-methylpyrimidin-4-ylamino)-7-methylbenzo[d]oxazol-2(3H)-one], for which the IC50 (Homo sapiens, T-cell) was below 0.5 µM.
For the molecule `Cn1c(=O)oc2ccc(Nc3nc(Nc4cccc(S(N)(=O)=O)c4)ncc3F)cc21` [Compound I-75, N2-((3-aminosulfonyl)phenyl)-N4-(3-methyl-2-oxo-2,3-dihydrobenzo[d]oxazol-5-yl)-5-fluoropyrimidine-2,4-diamine], the IC50 was below 0.5 µM.
Regarding `[2H]C([2H])([2H])Oc1ccc(Nc2ncc(C)c(Nc3ccc4oc(=O)[nH]c4c3)n2)cc1C` [Compound I-264, 5-(2-(3-methyl-4-trideuteromethoxyphenylamino)-5-methylpyrimidin-4-ylamino)benzo[d]oxazol-2(3H)-one], for the setting “Homo sapiens, T-cell”, the IC50 is below 0.5 µM.
In the case of `COc1c(C)cc(Nc2ncc(C)c(Nc3ccc4oc(=O)[nH]c4c3)n2)cc1C` [Compound I-369, N2-(3,5-dimethyl-4-methoxy)phenyl-5-methyl-N4-(2-oxo-2,3-dihydro-1,3-benzoxazol-5-yl)-2,4-pyrimidinediamine], the IC50 was below 0.5 µM.
For `Cc1cnc(Nc2ccc(F)cc2)nc1Nc1ccc2oc(=O)[nH]c2c1` [Compound I-470, 5-[2-(4-Fluoro-phenylamino)-5-methyl-pyrimidin-4-ylamino]-3H-benzooxazol-2-one], under “Homo sapiens, T-cell”, the IC50 was below 0.5 µM.
For the molecule `Cc1cnc(Nc2cccnc2)nc1Nc1ccc2oc(=O)[nH]c2c1` [II-42, 5-[5-Methyl-2-(pyridin-3-ylamino)-pyrimidin-4-ylamino]-3H-benzooxazol-2-one], the IC50 (Homo sapiens, T-cell) is 0.5 to 5 µM.
Same read-out and setting: with `Cc1cnc(Nc2ccc3c(c2)CCCC(=O)N3C)nc1Nc1ccc2oc(=O)[nH]c2c1` [IV-34, 5-(5-methyl-2-(1-methyl-2-oxo-2,3,4,5-tetrahydro-1H-benzo[b]azepin-7-ylamino)pyrimidin-4-ylamino)benzo[d]oxazol-2(3H)-one] the figure was below 0.5 µM.
